Assay results taken from patent US12076432B2, “Method of repairing oxidatively treated hair” (Conopco, Inc., priority 2018, dated 2024).

Assay: Denaturation temperature (Td) by DSC of soaked and rinsed bleached hair after wash with base wash
Details: after soak, rinse and wash with 14% SLES; vs Control (DB) or Control 2
Method: (§1) Hair was bleached for 30 min with Platine Precision White Compact Lightening Powder (L'Oreal Professionnel Paris, Paris, France) mixed with 9% cream peroxide, 30 ‘vol’ (Excel GS Ltd, UK) (60 g of powder mixed with 120 g cream peroxide). Hair was then rinsed with water for 2 minutes. This procedure was repeated on the same hair to produce twice bleached hair.
(§2) In the following examples, compositions A-C are comparative examples and 1-6 are in accordance with the invention. The compositions are 1% aqueous solutions of various N-Acetyl amino acids, prepared by adding the N-acetyl amino acid to water with stirring.
(§3) Twice bleached dark brown European hair was soaked for 30 minutes in 1% aqueous solutions of various N-Acetyl amino acids. The hair was then removed from the solution. Clippings from a few fibres were then taken and the denaturation temperature (Td) was measured using DSC.
(§4) The switches from experiment 1 were rinsed in running water for 30 seconds.
The rinsed switches of experiment 2 were washed with base wash (14% SLES solution) and DSC performed.
Hair was washed with a cleansing shampoo using the following method:—
The hair fibres were held under running water for 30 seconds, shampoo applied at a dose of 0.1 ml of shampoo per 1 g of hair and rubbed into the hair for 30 seconds. Excess lather was removed by holding under running water for 30 seconds and the shampoo stage repeated. The hair was rinsed under running water for 1 minute.

Row | Compound | Difference from control (Td)
1 | CC(=O)N[C@@H](C)C(=O)O [N-Acetyl Alanine] | 2.76 °C
2 | CC(=O)N[C@@H](CCC(=O)O)C(=O)O [N-Acetyl Glutamic acid] | 2.9 °C
3 | CC(=O)N[C@@H](CCC(N)=O)C(=O)O [N-Acetyl Glutamine] | 2.5 °C
4 | CC(=O)N[C@@H](Cc1c[nH]cn1)C(=O)O [N-Acetyl Histidine] | 1.93 °C
5 | CSCC[C@H](NC(C)=O)C(=O)O [N-Acetyl Methionine] | 5.42 °C
6 | CC(=O)N1CCC[C@H]1C(=O)O [N-Acetyl Proline] | 1.08 °C

Same assay, conditions: after soak, rinse and wash with base wash (14% SLES solution); DSC

Row | Compound | Td (n = 3)
7 | CC(=O)N[C@@H](C)C(=O)O [N-Acetyl Alanine] | 151.11
8 | CC(=O)N[C@@H](CCC(=O)O)C(=O)O [N-Acetyl Glutamic acid] | 151.26
9 | CC(=O)N[C@@H](CCC(N)=O)C(=O)O [N-Acetyl Glutamine] | 150.85
10 | CC(=O)N[C@@H](Cc1c[nH]cn1)C(=O)O [N-Acetyl Histidine] | 147.65
11 | CSCC[C@H](NC(C)=O)C(=O)O [N-Acetyl Methionine] | 151.14
12 | CC(=O)N1CCC[C@H]1C(=O)O [N-Acetyl Proline] | 149.43

Assay: Denaturation temperature (Td) by DSC of bleached hair after soak in 1% aqueous N-acetyl amino acid solution
Set-up: Denaturation Temperature Td (n = 3): unit not given here
Details: hair soaked 30 minutes in 1% aqueous solution; DSC; no rinse
Method: Hair that has been damaged has internal protein with a reduced denaturation temperature compared to that of virgin hair. The reduction in denaturation temperature is attributed to a degradation of the internal hair cortex proteins.
Hair damage can be measured in different ways. This invention focusses on the structural integrity of hair cortex proteins, as can be determined by Differential Scanning Calorimetry.
as §1, §2
In the following experiments, Control 1 and 2 were from two different batches of twice bleached hair. They were dialysed with water before being used.
as §3

Row | Compound | Denaturation Temperature Td (n = 3)
13 | CC(=O)N[C@@H](C)C(=O)O [N-Acetyl Alanine] | 156.00
14 | CC(=O)N[C@@H](CCCNC(=N)N)C(=O)O [N-Acetyl Arginine, reference compound] | 148.57
15 | CC(=O)N[C@@H](CS)C(=O)O [N-Acetyl Cysteine, reference compound] | 149.27
16 | CC(=O)N[C@@H](CCC(=O)O)C(=O)O [N-Acetyl Glutamic acid] | 154.69
17 | CC(=O)N[C@@H](CCC(N)=O)C(=O)O [N-Acetyl Glutamine] | 155.15
18 | CC(=O)N[C@@H](Cc1c[nH]cn1)C(=O)O [N-Acetyl Histidine] | 148.08
19 | CSCC[C@H](NC(C)=O)C(=O)O [N-Acetyl Methionine] | 153.36
20 | CC(=O)N1CCC[C@H]1C(=O)O [N-Acetyl Proline] | 154.46
21 | CC(=O)N[C@@H](CO)C(=O)O [N-Acetyl Serine] | 156.25

Same assay, conditions: hair soaked 30 minutes in 1% aqueous solution; vs Control 1 or Control 2 (twice bleached hair); in °C (unit assumed)

Row | Compound | Difference from control (Td)
22 | CC(=O)N[C@@H](C)C(=O)O [N-Acetyl Alanine] | 7.4
23 | CC(=O)N[C@@H](CCCNC(=N)N)C(=O)O [N-Acetyl Arginine, reference compound] | −0.03
24 | CC(=O)N[C@@H](CS)C(=O)O [N-Acetyl Cysteine, reference compound] | 0.67
25 | CC(=O)N[C@@H](CCC(=O)O)C(=O)O [N-Acetyl Glutamic acid] | 6.09
26 | CC(=O)N[C@@H](CCC(N)=O)C(=O)O [N-Acetyl Glutamine] | 6.55
27 | CC(=O)N[C@@H](Cc1c[nH]cn1)C(=O)O [N-Acetyl Histidine] | 2.51
28 | CSCC[C@H](NC(C)=O)C(=O)O [N-Acetyl Methionine] | 7.79
29 | CC(=O)N1CCC[C@H]1C(=O)O [N-Acetyl Proline] | 5.86
30 | CC(=O)N[C@@H](CO)C(=O)O [N-Acetyl Serine] | 7.65

Assay: Denaturation temperature (Td) by DSC of soaked bleached hair after subsequent rinse step
Details: after soak and 30 seconds rinse; vs Control 1 or Control 2
Method: as §1, §2, §3
The effect of a subsequent rinse step was determined.
as §4

Row | Compound | Difference from control (Td)
31 | CC(=O)N[C@@H](C)C(=O)O [N-Acetyl Alanine] | 4.2 °C
32 | CC(=O)N[C@@H](CCC(=O)O)C(=O)O [N-Acetyl Glutamic acid] | 3.89 °C
33 | CC(=O)N[C@@H](CCC(N)=O)C(=O)O [N-Acetyl Glutamine] | 1.97 °C
34 | CC(=O)N[C@@H](Cc1c[nH]cn1)C(=O)O [N-Acetyl Histidine] | 1.64 °C
35 | CSCC[C@H](NC(C)=O)C(=O)O [N-Acetyl Methionine] | 3.85 °C
36 | CC(=O)N1CCC[C@H]1C(=O)O [N-Acetyl Proline] | 2.16 °C
37 | CC(=O)N[C@@H](CO)C(=O)O [N-Acetyl Serine] | 3.02 °C

Same assay, conditions: after soak, rinsed in running water for 30 seconds; DSC

Row | Compound | Td (n = 3)
38 | CC(=O)N[C@@H](C)C(=O)O [N-Acetyl Alanine] | 152.99
39 | CC(=O)N[C@@H](CCC(=O)O)C(=O)O [N-Acetyl Glutamic acid] | 152.67
40 | CC(=O)N[C@@H](CCC(N)=O)C(=O)O [N-Acetyl Glutamine] | 150.75
41 | CC(=O)N[C@@H](Cc1c[nH]cn1)C(=O)O [N-Acetyl Histidine] | 147.76
42 | CSCC[C@H](NC(C)=O)C(=O)O [N-Acetyl Methionine] | 149.97
43 | CC(=O)N1CCC[C@H]1C(=O)O [N-Acetyl Proline] | 150.95
44 | CC(=O)N[C@@H](CO)C(=O)O [N-Acetyl Serine] | 151.80
